Measured values as given in ChEMBL document CHEMBL1130497, “Novel 7-hydroxycoumarin based fluorescent labels” (Bioorg Med Chem Lett, 1997).

Experiment: pKa value was determined
Format: physicochemical

pKa	SMILES
6.7	O=C(O)CCCCc1cc(=O)oc2c(CN3CCCC3)c(O)ccc12
7.8	O=C(O)CCCCc1cc(=O)oc2cc(O)ccc12
6.6	O=C(O)CCCCc1cc(=O)oc2c(CN3CCCCC3)c(O)ccc12
6.6	CCN(CC)Cc1c(O)ccc2c(CCCCC(=O)O)cc(=O)oc12
